From patent publication US6500817B1, “Thiazolyl urea derivatives and their utilization as antiviral agents” (Bayer Aktiengesellschaft, priority 1999, dated 2002)

Structure (SMILES)	melting point
CNS(=O)(=O)c1sc(N(C)C(=O)Nc2ccc(C3=NOCCO3)cc2)nc1C	192 to 194 °C
CCOc1ccc(NC(=O)N(Cc2ccncc2)c2nc(C)c(S(=O)(=O)N(C)C)s2)cc1	188 °C
CCCNS(=O)(=O)c1sc(N(CCC)C(=O)Nc2ccc(-c3ccccc3)cc2)nc1C	137 °C
CN(C(=O)Nc1ccc(N2CCOCC2)cc1)c1nc(Cl)c(S(=O)(=O)NCc2ccccc2)s1	201 °C
CCc1nc(N(CCCN(CC)CC)C(=O)Nc2ccc(-c3ccccc3)cc2)sc1S(N)(=O)=O	177 °C
CNS(=O)(=O)c1sc(N(CCOC)C(=O)Nc2ccc(-c3ccccc3)cc2)nc1C	170 °C
CNS(=O)(=O)c1sc(N(CCN(C)C)C(=O)Nc2ccc(-c3ccccc3)cc2)nc1C	154 °C
CNS(=O)(=O)c1sc(N(C)C(=O)Nc2ccc(N3CCOCC3)cc2)nc1Cl	228 °C
Cc1nc(N(C)C(=O)Nc2ccc(N3CCCCC3)cc2)sc1S(=O)(=O)NC1CC1	198 °C
Cc1nc(N(C)C(=O)Nc2ccc(N3CCCC3)cc2)sc1S(=O)(=O)NCC1CC1	205 °C
Cc1nc(N(C)C(=O)Nc2ccc(N3CCCC3=O)cc2)sc1S(=O)(=O)N(C)C	195 °C (dec.)
CN(C)C(=O)Nc1ccc(NC(=O)N(C)c2nc(Cl)c(S(=O)(=O)N(C)C)s2)cc1	240 °C
CCOc1ccc(NC(=O)N(CCN2CCOCC2)c2nc(C)c(S(=O)(=O)N(C)C)s2)cc1	204 °C
CNS(=O)(=O)c1sc(N(CCCN2CCCC2=O)C(=O)Nc2ccc(-c3ccccc3)cc2)nc1C	148 °C
CNS(=O)(=O)c1sc(N(CCOC)C(=O)Nc2ccc(N3CCCC3)cc2)nc1C	184 °C
CNS(=O)(=O)c1sc(N(C)C(=O)Nc2ccc(N3CCC(NC(=O)OC(C)(C)C)C3)cc2)nc1C (stereo not shown)	188 to 189 °C (dec.)
Cc1nc(N(C)C(=O)Nc2ccc(N3CCOCC3)cc2)sc1S(=O)(=O)N(C)C [67]	171 °C
Cc1nc(N(C)C(=O)Nc2ccc(N3CCC3)cc2)sc1S(=O)(=O)N(C)C	193 to 195 °C
CN(C(=O)Nc1ccc(-n2ccnn2)cc1)c1nc(Cl)c(S(=O)(=O)N(C)C)s1	225 °C
CNS(=O)(=O)c1sc(N(C)C(=O)Nc2ccc(N3CCCCC3)cc2)nc1C	157 to 160 °C (dec.)

Structure (SMILES)	melting point
COCCN(C(=O)Nc1ccc(-c2ccccc2)cc1)c1nc(C)c(S(=O)(=O)NC2CC2)s1	160 °C
CCOc1ccc(NC(=O)N(Cc2ccccc2)c2nc(C)c(S(=O)(=O)N(C)C)s2)cc1	187 °C
CNS(=O)(=O)c1sc(N(CCOC)C(=O)Nc2ccc(N3CCOCC3)cc2)nc1C	188 °C
CNS(=O)(=O)c1sc(N(CCCO)C(=O)Nc2ccc(N3CCOCC3)cc2)nc1C	181 °C
CN(C(=O)Nc1ccc(N2CCOCC2)c(Cl)c1)c1nc(Cl)c(S(=O)(=O)N(C)C)s1	203 °C
Cc1nc(N(C)C(=O)Nc2ccc(N3CCOCC3)cc2)sc1S(=O)(=O)N1CCCCC1	206 °C
CCOc1ccc(NC(=O)OCCN(C(=O)Nc2ccc(OCC)cc2)c2nc(C)c(S(=O)(=O)N(C)C)s2)cc1	177 °C
CCn1c(=O)oc2cc(NC(=O)N(C)c3nc(Cl)c(S(=O)(=O)N(C)C)s3)ccc21	232 °C
CCOc1ccc(NC(=O)N(Cc2ccncc2)c2nc(C)c(S(=O)(=O)NC3CC3)s2)cc1	200 °C
CNS(=O)(=O)c1sc(N(CCCN(C)c2ccccc2)C(=O)Nc2ccc(-c3ccccc3)cc2)nc1C	148 °C
CCOc1ccc(NC(=O)N(CCCCNC(=O)OC(C)(C)C)c2nc(C)c(S(=O)(=O)N(C)C)s2)cc1	152 °C
CCCN(C(=O)Nc1ccc(-c2ccccc2)cc1)c1nc(C)c(S(=O)(=O)NC)s1	156 °C
CCc1nc(N(CCCO)C(=O)Nc2ccc(N3CCOCC3)cc2)sc1S(=O)(=O)NC	169 °C
CCN(C(=O)Nc1ccc(N2CCOCC2)cc1)c1nc(Cl)c(S(=O)(=O)N(C)C)s1	190 °C
CCCN(C(=O)Nc1ccc(-c2ccccc2)cc1)c1nc(C)c(S(=O)(=O)NCC(F)(F)F)s1	146 °C
Cc1nc(N(C)C(=O)Nc2ccc(-c3cccn3C(=O)OC(C)(C)C)cc2)sc1S(=O)(=O)N(C)C	84 °C
Cc1nc(N(C)C(=O)Nc2ccc(N3CCOCC3)cc2)sc1S(=O)(=O)NC1CC1	235 °C
CCOc1ccc(NC(=O)N(CC2CCCN2CC)c2nc(C)c(S(=O)(=O)N(C)C)s2)cc1 (stereo not shown)	158 °C
Cc1nc(N(C)C(=O)Nc2ccc(-n3cccc3)cc2)sc1S(=O)(=O)NC1CC1	194 °C
Cc1nc(N(C)C(=O)Nc2ccc(-c3ccccc3)cc2)sc1S(=O)(=O)N(C)C	228 °C

Structure (SMILES)	melting point
CSc1ccc(NC(=O)N(C)c2nc(Cl)c(S(=O)(=O)N(C)C)s2)cc1	194 °C
CN(C(=O)Nc1ccc(OC(F)(F)C(F)F)cc1)c1nc(Cl)c(S(=O)(=O)N(C)C)s1	168 °C
Cc1nc(N(Cc2ccncc2)C(=O)Nc2ccc(N3CCOCC3)cc2)sc1S(N)(=O)=O	186 °C
CCCN(C(=O)Nc1ccc(COC)cc1)c1nc(C)c(S(=O)(=O)NCC(F)(F)F)s1	143 °C
CCOc1ccc(N(C)C(=O)Nc2nc(C)c(S(=O)(=O)N(C)C)s2)cc1	118 °C
COC(=O)c1ccc(N(C)C(=O)N(C)c2nc(Cl)c(S(=O)(=O)N(C)C)s2)cc1	168 °C
CCCN(C(=O)Nc1ccc(-c2ccccc2)cc1)c1nc(C)c(S(=O)(=O)NCCO)s1	156 °C
CN(C(=O)Nc1ccc(N2CCOCC2)cc1)c1nc(Cl)c(S(=O)(=O)N(C)C)s1 [9]	210 °C
Cc1nc(N(C)C(=O)Nc2ccc(-c3ccccc3)cc2)sc1S(N)(=O)=O	221 °C
CCCN(C(=O)Nc1ccc(N2CCOCC2)cc1)c1nc(C)c(S(=O)(=O)N(C)C)s1	161 °C
CC(=O)Nc1cc(N2CCCC2)ccc1NC(=O)N(C)c1nc(C)c(S(=O)(=O)N(C)C)s1 [168]	185 to 187 °C (dec.)
CCOC(=O)N1CC2CCC(c3ccc(NC(=O)N(C)c4nc(C)c(S(=O)(=O)N(C)C)s4)cc3)C2C1 (stereo not shown)	136 to 137 °C
CCc1nc(N(CCCO)C(=O)Nc2ccc(N3CCCC3)cc2)sc1S(=O)(=O)NC	161 °C
Cc1nc(N(C)C(=O)Nc2ccc(N3CCOCC3)cc2)sc1S(=O)(=O)N(C)C1CC1	198 °C
CNS(=O)(=O)c1sc(NC(=O)Nc2ccc(-c3ccccc3)cc2)nc1C	199 °C
CCCOc1ccc(NC(=O)N(C)C2=CC(C)=C(S(=O)(=O)NCCOC)C2)cc1	97 °C
CCCN(C(=O)Nc1ccc(-c2ccccc2)cc1)c1nc(C)c(S(N)(=O)=O)s1	144 °C
Cc1nc(N(CC2CCCO2)C(=O)Nc2ccc(-c3ccccc3)cc2)sc1S(N)(=O)=O (stereo not shown)	165 °C
Cc1nc(N(C)C(=O)Nc2ccc(N3CCOCC3)cc2)sc1S(=O)(=O)N(C)Cc1ccccn1	148 °C
CNS(=O)(=O)c1sc(N(CCN(C)C)C(=O)Nc2ccc(N3CCCC3)cc2)nc1C	188 °C

Results, then the compound that gave them:

melting point	Structure (SMILES)
130 °C	CCOc1ccc(NC(=O)N(c2nc(C)c(S(=O)(=O)N(C)C)s2)C(C)CC)cc1 (stereo not shown)
146 °C	CCOc1ccc(NC(=O)N(CCCNC(=O)OC(C)(C)C)c2nc(C)c(S(=O)(=O)NC)s2)cc1
170 °C	CCOc1ccc(NC(=O)N(C)c2nc(Cl)c(S(=O)(=O)NCc3ccccc3)s2)cc1
179 °C	CCOc1ccc(NC(=O)N(C)c2nc(C)c(S(=O)(=O)NC)s2)cc1
160 °C	CCOc1ccc(NC(=O)N(CCO)c2nc(C)c(S(=O)(=O)N(C)C)s2)cc1
171 °C	CCOc1ccc(NC(=O)N(CCOC)c2nc(C)c(S(N)(=O)=O)s2)cc1
162 °C	CCOc1ccc(NC(=O)N(CCN(C)C)c2nc(C)c(S(N)(=O)=O)s2)cc1
194 °C	CCOc1ccc(NC(=O)N(C)c2ncc(S(=O)(=O)N(C)C)s2)cc1
196 °C	CCOc1ccc(NC(=O)N(C)c2nc(C)c(S(N)(=O)=O)s2)cc1
164 °C	CCOc1ccc(NC(=O)N(C)c2nc(C)c(S(=O)(=O)NCC3CC3)s2)cc1
148 °C	CCOc1ccc(NC(=O)N(CCCCNC(=O)OC(C)(C)C)c2nc(C)c(S(=O)(=O)NC)s2)cc1
178 °C	CCOc1ccc(NC(=O)N(C)c2nc(C)c(S(=O)(=O)NCc3ccc4c(c3)OCO4)s2)cc1
171 °C	CCOc1ccc(NC(=O)N(C)c2ncc(S(=O)(=O)NCc3ccccc3)s2)cc1
140 °C	CCCCOc1ccc(NC(=O)N(C)c2nc(Cl)c(S(=O)(=O)N(C)C)s2)cc1
178 °C	CNS(=O)(=O)c1sc(N(C)C(=O)Nc2ccc(-c3cccc(OC)c3)cc2)nc1C
215 °C	CCOc1ccc(NC(=O)N(C)c2nc(Cl)c(S(=O)(=O)N(C)C)s2)cc1
212 °C	CCOc1ccc(NC(=O)N(Cc2cccnc2)c2nc(C)c(S(=O)(=O)NC)s2)cc1
141 °C	CCCN(C(=O)Nc1ccc(OCC)cc1)c1nc(C)c(S(=O)(=O)NC2CC2)s1
210 °C	CCOc1ccc(NC(=O)N(C)c2nc(CC)c(S(=O)(=O)NC)s2)cc1
197 °C	CCOc1ccc(NC(=O)N(Cc2nc3ccccc3[nH]2)c2nc(C)c(S(=O)(=O)NC)s2)cc1
199 °C	CCc1nc(N(C)C(=O)Nc2ccc(N3CCOCC3)cc2)sc1S(=O)(=O)N(C)C
162 °C	C=CCN(C(=O)Nc1ccc(OCC)cc1)c1nc(C)c(S(=O)(=O)NC)s1
150 °C	CCOc1ccc(NC(=O)N(CC2CCCO2)c2nc(C)c(S(=O)(=O)NC)s2)cc1 (stereo not shown)
192 °C	CCOc1ccc(NC(=O)N(C)c2nc(C)c(S(=O)(=O)NC(C)C)s2)cc1
168 °C	CCOc1ccc(NC(=O)N(CCN(C)C)c2nc(C)c(S(=O)(=O)NC3CC3)s2)cc1
163 °C	CCCOc1ccc(NC(=O)N(CCOC)c2nc(CC)c(S(N)(=O)=O)s2)cc1
134 °C	CCOc1ccc(NC(=O)N(C)c2nc(C)c(S(=O)(=O)NCc3cccc(OC)c3)s2)cc1
168 °C	CCOc1ccc(NC(=O)N(C)c2nc(C)c(S(=O)(=O)N(C)C)s2)cc1
